Assay results published in patent EP0909530A1, “Increased solubility of water soluble compounds” (BASF CORPORATION, priority 1997, dated 1999).

Experiment: Crystal formation in acifluorfen solution with co-solvents after cold storage (Example 2)
Format: physicochemical
Conditions: for Crystal Formation (%): stored at 5°C for 4 days, read at room temperature; for inhibition of precipitate: result in words
Description: An aqueous solution having a concentration of 46.8 % acifluorfen (sodium salt, Rohm and Haas, Inc.; significant crystallization observed) was heated to about 50°C to 60°C and stirred until the crystals dissolved (about ten hours). The solution was allowed to cool to room temperature. The dispersants were separately added to the solutions containing the acifluorfen to form a 1.0% solution (by weight) of the dispersant. The resulting samples were stored at 5°C for four days.
After four days, the samples were removed from storage and allowed to reach room temperature and the volume occupied by crystals was calculated (visual estimates) . The results were obtained by observation using a polarized Nikon Optiphot-2 Pol microscope.
Co-Solvents were evaluated for their ability to inhibit precipitation of acifluorfen in aqueous solutions. The experiment was carried-out using the same steps as described for the dispersants of Example 1. The co-solvents were evaluated at 5% and 10% by total weight of the solution. The formulations were stored at 5°C for 4 days and the percent crystal volume recorded after the temperature reached room temperature. […]

## CCCCOCCO [Butyl Cellosolve]
co-solvent Amount 5 %
  Crystal Formation (%): 10%
co-solvent Amount 10 %
  Crystal Formation (%): 15%
  inhibition of precipitate: most significant inhibition

## OCCO [Ethylene Glycol]
co-solvent Amount 5 %
  Crystal Formation (%): 10%
co-solvent Amount 10 %
  Crystal Formation (%): 15%
  inhibition of precipitate: most significant inhibition

## CC(O)CO (centres unmarked) [Propylene Glycol]
co-solvent Amount 5 %
  Crystal Formation (%): 10%
co-solvent Amount 10 %
  Crystal Formation (%): 80%
